Data as given in patent US20190055231A1, “BACE1 INHIBITORS” (Hoffmann-La Roche Inc., priority 2016, published 2019).

What was measured:
[1] = molecular target: T1, BACE1 (Homo sapiens, UniProt P56817); experiment: BACE1 cell-free assay (BACE1 enzyme assay); type: biochemical
From the text: BACE1 Cell-Free Assay (BACE1 Enzyme Assay)
(§1) The determination of BACE1 activity can be either measured by using an enzymatic cell-free fluorescence assay (BACE1 cell free, table 2) or by a whole cell assay using HEK293 APP cells (Cellular Aβ-lowering, table 2). Both assays are suitable to determine BACE1 inhibition.

[2] = molecular target: T2, BACE2 (Homo sapiens, UniProt Q9Y5Z0); experiment: BACE2 cell-free assay (BACE2 enzyme assay); type: biochemical; conditions: BACE2 IC50 divided by BACE1 IC50, cell free assays
T2 sequence (Q9Y5Z0 63-518): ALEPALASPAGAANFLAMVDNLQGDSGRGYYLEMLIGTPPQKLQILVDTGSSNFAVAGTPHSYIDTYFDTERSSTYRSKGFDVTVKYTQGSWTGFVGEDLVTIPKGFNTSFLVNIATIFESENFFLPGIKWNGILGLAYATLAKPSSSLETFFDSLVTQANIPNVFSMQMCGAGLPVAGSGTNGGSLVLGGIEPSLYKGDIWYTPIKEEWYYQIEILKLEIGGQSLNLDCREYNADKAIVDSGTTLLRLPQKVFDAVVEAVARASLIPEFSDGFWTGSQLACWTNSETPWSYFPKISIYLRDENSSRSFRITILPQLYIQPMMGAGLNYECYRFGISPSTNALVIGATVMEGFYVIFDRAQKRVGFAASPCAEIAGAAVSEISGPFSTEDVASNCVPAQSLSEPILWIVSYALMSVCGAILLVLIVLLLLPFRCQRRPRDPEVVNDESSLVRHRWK
From the text: BACE2 Cell-Free Assay (BACE2 Enzyme Assay)
Selectivity versus related targets is important in terms of safety of a drug candidate. BACE2 is a close homolog of BACE1. BACE2 was recently reported to play a crucial role in pigmentation of the skin by processing pigment cell-specific melanocyte protein (PMEL). (Proc Natl Acad Sci USA. 2013 Jun. 25; 110(26):10658-63. doi: 10.1073/pnas.1220748110. Epub 2013 Jun. 10). It is believed that PMEL contributes in melanogenesis. Therefore, selectivity versus BACE2 is advantageous when it comes to pigmentation of the skin. The selectivity ratio of BACE2/BACE1 IC50 was calculated by dividing the BACE2 IC50 value by the BACE1 IC50 value determined each in the cell free assay. […] This implies a 3-fold improvement of example 1 compared to comparators 4 and 5.

[3] = test system: Aβ40 in brain of wild-type mice; experiment: Mouse acute in vivo model (inhibition of Aβ40 in brain of wild-type mice); conditions: 4 h post dose; for Brain Aβ-lowering 3 mg/kg: single p.o. dose 3 mg/kg; for Brain Aβ-lowering 10 mg/kg: single p.o. dose 10 mg/kg; for Brain Aβ-lowering 30 mg/kg: single p.o. dose 30 mg/kg
Description: Mouse Acute In Vivo Model (Inhibition of Aβ40 in Brain of Wild-Type Mice)
Single Dose Efficacy in Mice
The mouse single dose efficacy was measured in brain homogenate from C57Bl/6J wildtype mice after DEA extraction as described in H. Hilpert et al., J. Med. Chem. 2013, 56, 3980-3995 (dx.doi.org/10.1021/jm400225m).
Aβ 40 concentration was determined after solid phase extraction as described above and following a modified protocol from Perkin-Elmer with a commercially available antibody against the N-terminal part of rat Aβ (252Q6, Invitrogen cat. No. AMB0062) and an in-house C-terminal specific anti-Aβ40 antibody (BAP-24, Brockhaus M. et al., J. Neuroreport, 1998, 9:1481-1486) bound to acceptor beads (PerkinElmer, Cat. 6772002). 20 μl analyte per well (reconstituted extracts or standard) were loaded to a White Optiplate-96 (Perkin-Elmer, Cat#6005290). Then, a mixture of biotinylated BAP24 antibody (1:2000 diluted at approximately 1 nM final concentration) and antibody 252Q6 bound to AlphaLISA acceptor beads (Perkin-Elmer cat. No. 6772002 (1:100 diluted, 10 ug/mL final concentration) in 1× AlphaLISA buffer (Perkin-Elmer, AL000F) was added. After 1 hour room temperature incubation in the dark, 20 uL of a streptavidin coated donor beads dilution (40 μg/mL) were added and incubated for 30 minutes in the dark. Light emission at 615 nm was recorded using an EnVision AlphaScreen Reader (Perkin-Elmer). Levels of Aβ40 were calculated as percentage of the baseline samples from non-treated animals.
Aβ40 lowering was determined after oral administration in wild-type mice (C57Bl/6J mice, n=3-4) 4 h post dosing. Wild-type mice were used as they have a normal physiological level of APP expression and are thus expected to provide a better physiological model for Aβ-peptide production than APP-transgenic organisms. In vivo efficacy is a key factor for appropriate drug candidates, being more relevant than in vitro activities.

[4] = molecular target: Human P-gp (Homo sapiens, UniProt P08183); experiment: P-gp transport assay (human); type: in vitro ADME; conditions: efflux ratio
Chain of Human P-gp (P08183 whole entry): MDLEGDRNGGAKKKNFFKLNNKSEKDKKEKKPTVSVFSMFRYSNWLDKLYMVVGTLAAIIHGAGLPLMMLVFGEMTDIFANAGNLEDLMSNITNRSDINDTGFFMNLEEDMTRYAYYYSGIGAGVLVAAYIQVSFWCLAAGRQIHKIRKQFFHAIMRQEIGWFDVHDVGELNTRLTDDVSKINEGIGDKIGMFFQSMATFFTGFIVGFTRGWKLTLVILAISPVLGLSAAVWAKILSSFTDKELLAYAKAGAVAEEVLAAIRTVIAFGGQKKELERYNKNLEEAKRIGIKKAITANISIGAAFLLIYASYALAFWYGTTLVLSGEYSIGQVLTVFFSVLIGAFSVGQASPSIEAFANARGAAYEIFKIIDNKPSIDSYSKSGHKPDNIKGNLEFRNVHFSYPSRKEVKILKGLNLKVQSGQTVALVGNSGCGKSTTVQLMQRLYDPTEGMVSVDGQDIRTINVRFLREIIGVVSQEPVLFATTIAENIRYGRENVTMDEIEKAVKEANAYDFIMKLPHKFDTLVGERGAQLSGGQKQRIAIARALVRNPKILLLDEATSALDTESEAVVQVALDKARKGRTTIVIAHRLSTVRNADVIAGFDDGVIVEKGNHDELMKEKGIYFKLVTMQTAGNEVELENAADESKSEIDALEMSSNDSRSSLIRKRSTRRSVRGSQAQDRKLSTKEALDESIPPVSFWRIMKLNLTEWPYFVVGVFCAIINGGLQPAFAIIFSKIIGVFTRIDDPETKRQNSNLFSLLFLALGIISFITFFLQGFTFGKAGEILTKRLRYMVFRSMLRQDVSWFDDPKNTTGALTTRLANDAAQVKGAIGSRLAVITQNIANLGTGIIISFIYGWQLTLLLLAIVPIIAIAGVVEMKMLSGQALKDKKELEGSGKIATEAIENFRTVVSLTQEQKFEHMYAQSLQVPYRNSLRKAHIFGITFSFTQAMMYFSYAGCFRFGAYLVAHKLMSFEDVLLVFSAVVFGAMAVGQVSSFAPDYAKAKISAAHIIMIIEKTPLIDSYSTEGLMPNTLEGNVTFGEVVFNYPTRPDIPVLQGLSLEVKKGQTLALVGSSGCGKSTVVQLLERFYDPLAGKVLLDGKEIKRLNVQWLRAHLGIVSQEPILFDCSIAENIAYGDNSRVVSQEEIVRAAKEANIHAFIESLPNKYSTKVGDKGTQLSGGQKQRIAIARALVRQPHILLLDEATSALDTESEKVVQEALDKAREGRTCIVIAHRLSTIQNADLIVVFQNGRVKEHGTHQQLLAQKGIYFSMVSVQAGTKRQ
From the text: (§2) P-Gp Transport Assay (Human and Mouse) (P-Gp Assay)
(§3) In the assay of the P-gp efflux ratio ER as described hereinabove, a compound with ER<2.5 is regarded most suitable. In addition, compounds with low hERG channel binding are suitable as well.

[5] = molecular target: Mouse P-gp (Mus musculus, UniProt P21447); experiment: P-gp transport assay (mouse); type: in vitro ADME; conditions: efflux ratio
Chain of Mouse P-gp (P21447 whole entry): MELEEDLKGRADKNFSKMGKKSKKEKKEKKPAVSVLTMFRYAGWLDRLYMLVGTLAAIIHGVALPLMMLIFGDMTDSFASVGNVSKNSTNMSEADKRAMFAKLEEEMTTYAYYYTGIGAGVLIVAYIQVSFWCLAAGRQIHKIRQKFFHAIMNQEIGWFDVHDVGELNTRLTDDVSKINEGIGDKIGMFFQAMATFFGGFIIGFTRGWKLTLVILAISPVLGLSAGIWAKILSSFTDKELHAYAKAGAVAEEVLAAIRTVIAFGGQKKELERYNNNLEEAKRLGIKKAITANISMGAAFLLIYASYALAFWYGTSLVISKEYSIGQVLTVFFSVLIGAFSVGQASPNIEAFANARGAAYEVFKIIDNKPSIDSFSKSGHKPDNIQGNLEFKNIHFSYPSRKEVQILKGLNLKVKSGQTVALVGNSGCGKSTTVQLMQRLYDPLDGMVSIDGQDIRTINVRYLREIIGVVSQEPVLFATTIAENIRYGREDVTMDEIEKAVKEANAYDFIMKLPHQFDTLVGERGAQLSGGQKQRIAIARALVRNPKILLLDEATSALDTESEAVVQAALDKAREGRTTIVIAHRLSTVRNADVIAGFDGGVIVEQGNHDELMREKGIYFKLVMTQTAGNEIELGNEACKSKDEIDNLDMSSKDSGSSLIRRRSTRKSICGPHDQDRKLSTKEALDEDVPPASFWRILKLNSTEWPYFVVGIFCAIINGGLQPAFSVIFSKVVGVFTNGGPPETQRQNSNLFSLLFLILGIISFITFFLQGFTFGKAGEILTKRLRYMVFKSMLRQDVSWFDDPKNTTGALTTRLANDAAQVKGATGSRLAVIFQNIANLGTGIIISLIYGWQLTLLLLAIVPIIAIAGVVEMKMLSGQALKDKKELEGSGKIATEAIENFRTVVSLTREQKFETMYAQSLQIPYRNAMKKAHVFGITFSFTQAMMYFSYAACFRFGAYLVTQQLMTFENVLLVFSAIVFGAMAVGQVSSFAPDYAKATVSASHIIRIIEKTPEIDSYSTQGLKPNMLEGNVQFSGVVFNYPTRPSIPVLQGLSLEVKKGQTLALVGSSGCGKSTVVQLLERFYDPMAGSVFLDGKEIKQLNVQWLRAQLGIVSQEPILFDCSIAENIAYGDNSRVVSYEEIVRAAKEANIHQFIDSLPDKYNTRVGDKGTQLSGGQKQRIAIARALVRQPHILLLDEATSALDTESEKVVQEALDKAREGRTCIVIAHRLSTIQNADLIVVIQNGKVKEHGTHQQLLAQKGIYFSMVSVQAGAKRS
From the text: as §2, §3

[6] = molecular target: T1, BACE1; experiment: Cellular Aβ-lowering assay (Abeta 40 AlphaLISA, HEK293 APP cells); type: cell-based; set-up: endogenous in cells; host or cells: HEK293 APP cells
Description: Cellular Aβ-Lowering Assay:
The Abeta 40 AlphaLISA Assay can be used. The HEK293 APP cells were seeded in 96 well Microtiter plates in cell culture medium (Iscove's, plus 10% (v/v) fetal bovine serum, penicillin/streptomycin) to about 80% confluency and the compounds were added at a 3× concentration in ⅓ volume of culture medium (final DMSO concentration was kept at 1% v/v). After 18-20 hrs incubation at 37° C. and 5% CO2 in a humidified incubator, the culture supernatants were harvested for the determination of AP 40 concentrations using Perkin-Elmer Human Amyloid beta 1-40 (high specificity) Kit (Cat#AL275C).
In a Perkin-Elmer White Optiplate-384 (Cat#6007290), 2 ul culture supernatants were combined with 2 μl of a 10× AlphaLISA Anti-hAP Acceptor beads+Biotinylated Antibody Anti-Aβ 1-40 Mix (50 μg/mL/5 nM). After 1 hour room temperature incubation, 16 μl of a 1.25× preparation of Streptavidin (SA) Donor beads (25 μg/mL) were added and incubated for 30 minutes in the Dark. Light Emission at 615 nm was then recorded using EnVision-Alpha Reader. Levels of AP 40 in the culture supernatants were calculated as percentage of maximum signal (cells treated with 1% DMSO without inhibitor). The IC50 value were calculated using the Excel XLfit software.
Cellular Aβ-Lowering Assay (Cell-Based Assay)
as §1

[7] = molecular target: hERG channel (Homo sapiens, UniProt Q12809); experiment: hERG IC20 assay; type: cell-based; conditions: for IC20: human, hERG IC20 assay
Chain of hERG channel (Q12809 whole entry): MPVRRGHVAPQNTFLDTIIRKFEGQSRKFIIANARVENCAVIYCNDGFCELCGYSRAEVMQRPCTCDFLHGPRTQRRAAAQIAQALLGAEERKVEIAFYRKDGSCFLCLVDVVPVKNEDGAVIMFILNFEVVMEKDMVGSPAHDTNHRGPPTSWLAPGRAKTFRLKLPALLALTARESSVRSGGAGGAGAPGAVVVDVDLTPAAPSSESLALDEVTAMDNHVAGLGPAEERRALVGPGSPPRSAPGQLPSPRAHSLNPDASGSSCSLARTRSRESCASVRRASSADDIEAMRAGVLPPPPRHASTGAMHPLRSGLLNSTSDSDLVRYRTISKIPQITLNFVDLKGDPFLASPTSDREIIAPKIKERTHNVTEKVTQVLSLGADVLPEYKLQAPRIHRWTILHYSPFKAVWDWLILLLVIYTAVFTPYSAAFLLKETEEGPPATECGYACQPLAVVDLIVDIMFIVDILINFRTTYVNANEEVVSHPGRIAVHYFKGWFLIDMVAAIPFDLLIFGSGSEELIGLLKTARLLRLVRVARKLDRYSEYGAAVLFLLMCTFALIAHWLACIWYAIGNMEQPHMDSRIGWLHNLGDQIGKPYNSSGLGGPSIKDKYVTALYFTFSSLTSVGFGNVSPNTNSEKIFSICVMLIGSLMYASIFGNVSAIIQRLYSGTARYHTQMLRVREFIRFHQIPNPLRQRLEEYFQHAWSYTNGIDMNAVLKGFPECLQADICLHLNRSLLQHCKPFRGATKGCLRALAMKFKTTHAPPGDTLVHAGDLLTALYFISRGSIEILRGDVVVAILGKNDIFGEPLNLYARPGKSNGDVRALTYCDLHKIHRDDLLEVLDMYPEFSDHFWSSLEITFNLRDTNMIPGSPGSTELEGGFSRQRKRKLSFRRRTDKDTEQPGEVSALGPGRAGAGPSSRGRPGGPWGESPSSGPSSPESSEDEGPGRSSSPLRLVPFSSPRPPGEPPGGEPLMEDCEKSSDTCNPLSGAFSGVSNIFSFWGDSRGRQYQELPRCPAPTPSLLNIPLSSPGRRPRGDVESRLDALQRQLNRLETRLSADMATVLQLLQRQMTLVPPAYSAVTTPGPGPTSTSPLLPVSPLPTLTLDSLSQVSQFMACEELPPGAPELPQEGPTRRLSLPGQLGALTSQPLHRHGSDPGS
From the text: The methods to determine the hERG IC20 values was described in Industrializing electrophysiology: HT automated patch clamp on SyncroPatch® 96 using instant frozen cells. Polonchuk L., Methods Mol Biol. 2014; 1183:81-92. (doi: 10.1007/978-1-4939-1096-0_5.) PMID:25023303
QT prolongation is a cardiovascular risk caused by drug candidates which inhibit the hERG channel (human ether a go-go). A sufficient safety margin between the hERG IC20 value and the free plasma concentration necessary to achieve the envisaged thereapeutic effects is desired (ICH. The nonclinical evaluation of the potential for delayed ventricular repolarization (QT interval prolongation) by human pharmaceuticals (S7B), issued as CPMP/ICH/423/02, adopted by CHMP in May 2005 (http://www.ich.org/cache/compo/276-254-1.html; Redfern W S, Carlsson L, Davis A S, Lynch W G, MacKenzie I, Palethorpe S, Siegl P K, Strang I, Sullivan A T, Wallis R, Camm A J, Hammond T G. Relationships between preclinical cardiac electrophysiology, clinical QT interval prolongation and torsade de pointes for a broad range of drugs: evidence for a provisional safety margin in drug development. Cardiovasc Res. 2003 Apr. 1; 58(1):32-45.)). Reducing the activity against efflux transporters expressed at the blood-brain-barrier such as P-glycoprotein P-gp, might result in reduction of the free plasma concentration by optimizing brain penetration.

[8] = HEK293 APP cells, Aβ40 in supernatant, read-out: BACE1 cell act. Aβ40 IC50

T1 sequence (P56817 46-501): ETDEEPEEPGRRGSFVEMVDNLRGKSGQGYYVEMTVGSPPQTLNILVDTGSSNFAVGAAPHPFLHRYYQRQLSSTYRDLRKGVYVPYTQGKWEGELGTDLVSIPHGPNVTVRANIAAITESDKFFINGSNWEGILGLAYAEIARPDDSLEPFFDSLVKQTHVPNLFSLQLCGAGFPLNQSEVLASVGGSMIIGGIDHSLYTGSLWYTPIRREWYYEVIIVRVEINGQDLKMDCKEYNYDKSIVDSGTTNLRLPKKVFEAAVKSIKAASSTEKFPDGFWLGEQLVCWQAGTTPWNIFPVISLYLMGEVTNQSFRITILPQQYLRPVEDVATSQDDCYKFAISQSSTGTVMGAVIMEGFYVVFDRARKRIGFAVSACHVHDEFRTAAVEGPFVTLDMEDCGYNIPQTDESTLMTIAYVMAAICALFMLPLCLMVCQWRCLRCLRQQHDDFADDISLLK

Row | SMILES | IC50 [1] [nM] | BACE2/BACE1 IC50 ratio [2] | Brain Aβ-lowering 3 mg/kg [3] [%] | Brain Aβ-lowering 10 mg/kg [3] [%] | Brain Aβ-lowering 30 mg/kg [3] [%] | Human P-gp ER [4] | Mouse P-gp ER [5] | IC50 [6, 8] [nM] | IC50 ([6]; read-out: cellular potency) [nM] | IC20 ([7]; instant frozen cells (hERG channel, automated patch clamp)) [nM] | IC20 [7] [nM] | Brain Aβ-lowering 3 mg/kg ([3]; listed as comparator 5) [%] | higher affinity to hERG than example 1 [7] [fold]
1 | C[C@]1(c2nc(NC(=O)c3ccc(C#N)cn3)ccc2F)N=C(N)O[C@H](C(F)(F)F)C1(F)F [Comparator 1, N-(6-((4R,6S)-2-Amino-5,5-difluoro-4-methyl-6-(trifluoromethyl)-5,6-dihydro-4H-1,3-oxazin-4-yl)-5-fluoropyridin-2-yl)-5-cyanopicolinamide] | 29 | 3.0 | 2 | 4 | 66 | 1.4 | 1.3 | 324 |  |  |  |  | 
2 | Cc1cc(C#N)cnc1C(=O)Nc1ccc(F)c([C@@]2(C)N=C(N)O[C@H](C(F)(F)F)C2(F)F)n1 [Comparator 2, N-(6-((4R,6S)-2-Amino-5,5-difluoro-4-methyl-6-(trifluoromethyl)-5,6-dihydro-4H-1,3-oxazin-4-yl)-5-fluoropyridin-2-yl)-5-cyano-3-methylpicolinamide] | 19 | 3.0 | 10 | 42 |  |  | 1.4 | 203 |  |  |  |  | 
3 | C[C@]1(c2nc(NC(=O)c3ccc(C#N)cn3)ccc2F)N=C(N)O[C@@H](C(F)(F)F)C1(F)F [Comparator 3, N-(6-((4R,6R)-2-Amino-5,5-difluoro-4-methyl-6-(trifluoromethyl)-5,6-dihydro-4H-1,3-oxazin-4-yl)-5-fluoropyridin-2-yl)-5-cyanopicolinamide] |  |  |  |  |  |  |  | 37400 | > 35000 |  |  |  | 
4 | C[C@@]1(c2nc(NC(=O)c3ccc(C#N)cn3)ccc2F)C[C@@H](C(F)(F)F)OC(N)=N1 [Comparator 4] | 33 |  |  |  |  |  |  | 4 |  | 40 | 40 |  | 
5 | Cc1cc(C#N)cnc1C(=O)Nc1ccc(F)c([C@]2(C)C[C@@H](C(F)(F)F)OC(N)=N2)n1 [Comparator 5] |  |  | 7 | 70 |  | 3.3 | 8.1 |  |  |  | 440 | 7 | 5.3
6 | C[C@]1(c2nc(NC(=O)c3ccc(C#N)cn3)ccc2F)N=C(N)O[C@@H](C(F)(F)F)[C@@H]1F [Comparator 7] |  |  |  |  | 70 |  |  |  |  |  |  |  | 
